From patent US20080221161A1, “HETEROCYCLIC MODULATORS OF TGR5 FOR TREATMENT OF DISEASE” (KALYPSYS, INC., priority 2007, published 2008)
Where a name gives a salt, the structure may show the parent alone.

Key:
human TGR5 = target: T1, human TGR5 (Homo sapiens, UniProt Q8TDU6); experiment: cAMP production assay in HEK293-TGR5 cells; format: cell-based; conditions: HEK293 cells stably expressing human TGR5; 30 minutes stimulation; LANCE cAMP TR-FRET; read-out: cAMP Production in 293-TGR5 Cells EC50
T1 construct: expressed in transfected cells; host or cells: HEK-293 cells, stably transfected (pcDNA 3.1, Fugene6, geneticin selection)
T1 sequence (Q8TDU6 1-330): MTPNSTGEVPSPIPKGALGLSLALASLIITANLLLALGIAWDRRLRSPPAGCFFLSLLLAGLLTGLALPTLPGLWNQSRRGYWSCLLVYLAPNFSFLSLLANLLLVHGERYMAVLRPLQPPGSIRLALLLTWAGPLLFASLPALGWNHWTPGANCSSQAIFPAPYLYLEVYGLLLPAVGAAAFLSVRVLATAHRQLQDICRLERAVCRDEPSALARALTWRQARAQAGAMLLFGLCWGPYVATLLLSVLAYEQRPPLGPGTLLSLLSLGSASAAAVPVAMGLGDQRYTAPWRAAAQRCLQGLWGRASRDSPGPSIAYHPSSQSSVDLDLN

[1] = test system: mice fed high fat diet (HFD); conditions: mice fed HFD containing 0.5% cholic acid vs HFD alone; cited from earlier work

EC50 (human TGR5) [µM]	Structure (SMILES)	other results
< 10	C[C@H](NCc1cc2ccc(O)cc2nc1-c1ccsc1)c1ccc(Br)cc1 [Example 135, (S)-3-((1-(4-Bromophenyl)ethylamino)methyl)-2-(thiophen-3-yl)quinolin-7-ol]	
< 10	N#Cc1ccc2cc(CNCCc3ccc(Br)cc3)c(-c3ccsc3)nc2c1 [Example 136, 3-((4-Bromophenethylamino)methyl)-2-(thiophen-3-yl)quinoline-7-carbonitrile]	
> 10	CCOC(=O)c1ccc2cc(CNCCc3ccc(Br)cc3)c(-c3ccsc3)nc2c1 [Example 137, Ethyl 3-((4-bromophenethylamino)methyl)-2-(thiophen-3-yl)quinoline-7-carboxylate]	
< 10	NC(=O)c1ccc2cc(CNCCc3ccc(Br)cc3)c(-c3ccsc3)nc2c1 [Example 139, 3-((4-Bromophenethylamino)methyl)-2-(thiophen-3-yl)quinoline-7-carboxamide]	
< 10	CNC(=O)c1ccc2cc(CNCCc3ccc(Br)cc3)c(-c3ccsc3)nc2c1 [Example 140, 3-((4-Bromophenethylamino)methyl)-N-methyl-2-(thiophen-3-yl)quinoline-7-carboxamide]	
< 10	OCc1ccc2cc(CNCCc3ccc(Br)cc3)c(-c3ccsc3)nc2c1 [Example 141, (3-((4-Bromophenethylamino)methyl)-2-(thiophen-3-yl)quinolin-7-yl)methanol]	
> 10	CC(=O)Nc1ccc2cc(CNCCc3ccc(Br)cc3)c(-c3ccsc3)nc2c1 [Example 142, N-(3-((4-bromophenethylamino)methyl)-2-(thiophen-3-yl)quinolin-7-yl)acetamide]	
< 10	COc1cc2nc(-c3ccsc3)c(CNCCc3ccc(Br)cc3)cc2cc1F [Example 146, 2-(4-Bromophenyl)-N-((6-fluoro-7-methoxy-2-(thiophen-3-yl)quinolin-3-yl)methyl)-ethanamine]	
> 10	Oc1cc2nc(-c3ccsc3)c(CNCCc3ccc(Br)cc3)cc2cc1F [Example 147, 3-((4-Bromophenethylamino)methyl)-6-fluoro-2-(thiophen-3-yl)quinolin-7-ol]	
> 10	COc1ccc2cc(CNCCc3ccc(Br)cc3)c(OC)nc2c1 [Example 148, 2-(4-Bromophenyl)-N-((2,7-dimethoxyquinolin-3-yl)methyl)ethanamine]	
> 10	COc1ccc2cc(CNCCc3ccc(Br)cc3)c(O)nc2c1 [Example 149, 3-((4-Bromophenethylamino)methyl)-7-methoxyquinolin-2(1H)-one hydrochloride]	

The next lines start with the compound.

Structure (SMILES)	EC50 (human TGR5) [µM]	other results
O=[N+]([O-])c1ccc2cc(CNCCc3ccc(Br)cc3)c(-c3ccsc3)nc2c1 [Example 127, 2-(4-bromophenyl)-N-((7-nitro-2-(thiophen-3-yl)quinolin-3-yl)methyl)ethanamine]	> 10	
Nc1ccc2cc(CNCCc3ccc(Br)cc3)c(-c3ccsc3)nc2c1 [Example 128, 3-((4-Bromophenethylamino)methyl)-2-(thiophen-3-yl)quinolin-7-amine]	> 10	
COc1ccc2c(C)c(CNCCc3ccc(Br)cc3)c(-c3ccsc3)nc2c1 [Example 129, 2-(4-Bromophenyl)-N-((7-methoxy-4-methyl-2-(thiophen-3-yl)quinolin-3-yl)methyl)ethanamine]	> 10	
COc1ccc2cc(CN[C@H](C)c3ccc(Br)cc3)c(-c3ccsc3)nc2c1 [Example 130, (R)-1-(4-Bromophenyl)-N-((7-methoxy-2-(thiophen-3-yl)quinolin-3-yl)methyl)ethanamine]	< 10	
COc1cc2cc(CNCCc3ccc(Br)cc3)c(-c3ccsc3)nc2cc1C [Example 131, 2-(4-Bromophenyl)-N-((6-methoxy-7-methyl-2-(thiophen-3-yl)quinolin-3-yl)methyl)ethanamine]	< 10	
Cc1cc2nc(-c3ccsc3)c(CNCCc3ccc(Br)cc3)cc2cc1O [Example 132, 3-((4-Bromophenethylamino)methyl)-7-methyl-2-(thiophen-3-yl)quinolin-6-ol]	> 10	
COc1ccc2cc(CN[C@@H](C)c3ccc(Br)cc3)c(-c3ccsc3)nc2c1 [Example 133, (S)-1-(4-Bromophenyl)-N-((7-methoxy-2-(thiophen-3-yl)quinolin-3-yl)methyl)ethanamine]	< 10	
C[C@@H](NCc1cc2ccc(O)cc2nc1-c1ccsc1)c1ccc(Br)cc1 [Example 134, (R)-3-((1-(4-Bromophenyl)ethylamino)methyl)-2-(thiophen-3-yl)quinolin-7-ol]	< 10	
COc1ccc2cc(CNC(C)Cc3ccc(Br)cc3)c(-c3ccsc3)nc2c1 (stereo not shown) [Example 145, 1-(4-Bromophenyl)-N-((7-methoxy-2-(thiophen-3-yl)quinolin-3-yl)methyl)propan-2-amine]	> 10	
C[C@H](CCC(=O)O)[C@H]1CC[C@H]2[C@@H]3[C@H](O)C[C@@H]4C[C@H](O)CC[C@]4(C)[C@H]3C[C@H](O)[C@]12C [cholic acid]		Food intake [1]: no difference between the two groups; Weight gain [1]: gained less weight than control mice on HFD alone
